One data set deals with Lewis lung tumors. Briefly: Growth of SC Lewis lung tumors.
A further data set has as its system C26 colon tumors. Briefly: Survival of mice with IP C26 colon tumors. It is filed as in vivo, BalbC mice. The following applies: amifostine 200 mg/kg for five administrations. As to the method:
Euthanasia was provided for animals with weight loss greater than 20% or with clinical signs of distress. Survival of female BalbC mice with IP C26 colon tumors treated once with Doxil® (8 mg/kg) (tumor inoculation: 10^6 cells IP). Animals were administered 200 mg/kg of amifostine subcutaneously (SC) prior to Doxil® administration and 1, 2, 4 and 6 days after Doxil® administration (FIG. 4).

The subject of another data set is PPE lesions. Description: Rat model of Doxil-induced palmar-plantar erythrodysesthesia (PPE). It is filed as in vivo, Sprague-Dawley rats. As to the method:
PPE score is the product of Severity Score and percentage of body area affected. Overall PPE score is the sum of scores for each body area.
24 male Sprague-Dawley rats weighing between 250 to 300 grams(g) were intravenously (IV) treated with Doxil® weekly for 5 cycles of administration. The dosage administered was 2.5 mg/kg IV. […] The rats were observed weekly for lesions and scoring (FIG. 1). Scores for severity and percentage affected body area were analyzed and reported on final observation.
Sprague-Dawley rats were treated with amifostine at a dosage of 100 or 200 milligram/kilogram (mg/kg) IV, weekly, approximately 15 minutes before each Doxil® injection or treated with amifostine, 100 mg/kg IV, twice weekly at 15 min before and 3 days after Doxil injection (FIG. 2).

Data set [1] has as its system murine and human xenograft tumor models. The following applies: in vivo; cited from earlier work.
In data set [2] the test system is canine non-Hodgkin's lymphoma. The following applies: cited from earlier work.

Experimental for Lewis lung tumors: Doxil® was administered 4 mg/kg IV, weekly for 3 cycles. Amifostine, 100 or 200 mg/kg IV, was administered before and 1, 2, and 3 days after each Doxil® treatment cycle.

For the molecule `NCCCNCCSP(=O)(O)O` [amifostine], the “rate of tumor growth” value in the data set on Lewis lung tumors (Doxil 4 mg/kg IV weekly for 3 cycles, amifostine 100 or 200 mg/kg IV before and 1, 2, 3 days after each Doxil) was “did not affect rate of tumor growth”. For the same molecule, in the data set with Lewis lung tumors (amifostine 200 mg/kg days 0-3 of each Doxil treatment cycle), the “toxicity to the animals” value is “not significantly toxic”. In addition, the “toxicity (weight loss, lethargy)” value with C26 colon tumors is on record as “Significant toxicity”. For the same molecule, the “overall PPE severity score” value in the data set on PPE lesions (amifostine 100 mg/kg IV twice weekly, 15 min before and 3 days after Doxil 2.5 mg/kg, p<0.02) is 4.33; in the data set on PPE lesions (amifostine 100 mg/kg IV weekly, 15 min before each Doxil 2.5 mg/kg, not significant) it was 7.94; in the data set with PPE lesions (amifostine 200 mg/kg IV weekly before each Doxil 2.5 mg/kg, p<0.01), 3.18. Besides, the “incidence of PPE” value in the data set with PPE lesions (amifostine treatment with liposomal doxorubicin 2.5 mg/kg weekly) is listed as “reduced”.
Consider `Cc1ncc(CO)c(CO)c1O` [pyridoxine], for which, in data set [1], the “effect of pyridoxine co-treatment on therapeutic effect of liposomal doxorubicin” value was “does not reduce the therapeutic effect”. Besides, the “likelihood of severe PPE and discontinuation, placebo-treated versus pyridoxine-treated dogs (relative risk)” value in data set [2] (liposomal doxorubicin 1 mg/kg q 3 weeks x5, pyridoxine 50 mg tid oral 15 weeks, p=0.032) was 4.2 fold. Moreover, the “remission rates between groups” value in data set [2] (pyridoxine versus placebo) is “No difference”. Moreover, the duration of remission in data set [2] (pyridoxine-treated dogs, placebo 48 days, p=0.084) is on record as 159 days. Moreover, the survival in data set [2] (pyridoxine-treated dogs, placebo 130 days, p=0.182) is 201 days.

Values taken from US20020028237A1, “Method for reducing toxicity of a cytotoxic agent” (priority 2000, published 2002).
